Patent US20240269139A1, “COMPOUNDS FOR TARGETED PROTEIN DEGRADATION OF KINASES” (DANA-FARBER CANCER INSTITUTE, INC., priority 2020, published 2024)
Like-named read-outs stand apart in the source and are kept apart here.

What was measured:
Assay type in all cases: cell-based
[1] = molecular target: T1, protein kinases (human kinome) (Homo sapiens, UniProt O14976)
T1 sequence (O14976 1-1311): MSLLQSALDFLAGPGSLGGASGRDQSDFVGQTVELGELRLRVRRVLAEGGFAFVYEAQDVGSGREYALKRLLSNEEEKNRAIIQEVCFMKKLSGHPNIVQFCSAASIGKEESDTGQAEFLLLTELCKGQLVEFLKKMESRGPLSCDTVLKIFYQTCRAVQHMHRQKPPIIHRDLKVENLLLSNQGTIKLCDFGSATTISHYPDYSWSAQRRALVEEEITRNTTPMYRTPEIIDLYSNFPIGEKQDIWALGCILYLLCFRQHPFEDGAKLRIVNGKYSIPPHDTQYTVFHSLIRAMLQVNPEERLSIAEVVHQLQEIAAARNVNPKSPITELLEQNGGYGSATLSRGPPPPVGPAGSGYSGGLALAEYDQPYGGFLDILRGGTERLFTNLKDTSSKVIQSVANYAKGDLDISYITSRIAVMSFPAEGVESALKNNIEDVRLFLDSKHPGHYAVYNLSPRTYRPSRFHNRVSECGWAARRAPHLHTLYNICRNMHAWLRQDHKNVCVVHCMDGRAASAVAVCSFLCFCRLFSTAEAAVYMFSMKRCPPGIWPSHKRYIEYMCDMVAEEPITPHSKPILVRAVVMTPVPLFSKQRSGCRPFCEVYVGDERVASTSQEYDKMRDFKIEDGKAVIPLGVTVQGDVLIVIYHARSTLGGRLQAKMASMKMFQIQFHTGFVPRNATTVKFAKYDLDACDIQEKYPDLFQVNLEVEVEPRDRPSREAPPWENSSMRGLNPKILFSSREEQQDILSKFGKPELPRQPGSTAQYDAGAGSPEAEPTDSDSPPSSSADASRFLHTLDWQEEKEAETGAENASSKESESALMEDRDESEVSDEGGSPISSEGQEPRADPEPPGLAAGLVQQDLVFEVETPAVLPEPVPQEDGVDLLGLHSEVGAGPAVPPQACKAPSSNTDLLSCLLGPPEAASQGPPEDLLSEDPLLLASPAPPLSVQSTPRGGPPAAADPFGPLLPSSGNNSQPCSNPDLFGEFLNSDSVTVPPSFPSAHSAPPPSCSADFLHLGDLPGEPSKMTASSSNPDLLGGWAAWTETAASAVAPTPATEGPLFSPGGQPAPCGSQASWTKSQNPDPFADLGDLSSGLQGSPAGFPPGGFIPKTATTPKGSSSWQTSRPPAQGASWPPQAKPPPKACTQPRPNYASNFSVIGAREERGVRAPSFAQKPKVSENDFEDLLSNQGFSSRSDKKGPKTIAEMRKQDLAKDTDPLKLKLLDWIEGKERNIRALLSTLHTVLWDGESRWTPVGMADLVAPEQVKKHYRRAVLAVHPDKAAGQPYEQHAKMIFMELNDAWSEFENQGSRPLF

[2] = molecular target: protein kinases (human kinome) (Homo sapiens, UniProt P51451); details: for logFC BLK: BLK (P51451), direction down; for logFC of BLK: BLK P51451; for logFC of BLK (P51451): down
[3] = molecular target: protein kinases (human kinome) (Homo sapiens, UniProt Q9H0K1); details: for logFC of SIK2: Accession Q9H0K1; for logFC SIK2 (Q9H0K1): direction of change down
[4] = molecular target: protein kinases (human kinome) (Homo sapiens, UniProt Q00534); details: for logFC CDK6: CDK6 (Q00534), direction down; for logFC of CDK6 (Q00534): down
[5] = GAK (O14976), experiment wp195, down
[6] = GAK, accession O14976, experiment wp195, direction of change down

Chain of protein kinases (human kinome) (Homo sapiens, UniProt P51451) (P51451 whole entry): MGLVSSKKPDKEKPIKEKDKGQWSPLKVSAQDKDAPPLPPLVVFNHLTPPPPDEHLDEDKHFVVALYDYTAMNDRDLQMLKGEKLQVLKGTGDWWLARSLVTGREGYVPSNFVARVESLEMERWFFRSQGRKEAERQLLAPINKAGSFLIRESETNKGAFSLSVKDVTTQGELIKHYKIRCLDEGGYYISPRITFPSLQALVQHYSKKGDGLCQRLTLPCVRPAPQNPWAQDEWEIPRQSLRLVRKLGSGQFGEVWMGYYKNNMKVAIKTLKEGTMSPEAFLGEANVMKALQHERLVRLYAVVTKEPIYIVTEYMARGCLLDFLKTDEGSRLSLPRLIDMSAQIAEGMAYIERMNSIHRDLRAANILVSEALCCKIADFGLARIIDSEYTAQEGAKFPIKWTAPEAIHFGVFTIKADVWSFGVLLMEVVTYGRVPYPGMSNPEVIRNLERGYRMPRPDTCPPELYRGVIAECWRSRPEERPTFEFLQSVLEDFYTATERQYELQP
Chain of protein kinases (human kinome) (Homo sapiens, UniProt Q9H0K1) (Q9H0K1 whole entry): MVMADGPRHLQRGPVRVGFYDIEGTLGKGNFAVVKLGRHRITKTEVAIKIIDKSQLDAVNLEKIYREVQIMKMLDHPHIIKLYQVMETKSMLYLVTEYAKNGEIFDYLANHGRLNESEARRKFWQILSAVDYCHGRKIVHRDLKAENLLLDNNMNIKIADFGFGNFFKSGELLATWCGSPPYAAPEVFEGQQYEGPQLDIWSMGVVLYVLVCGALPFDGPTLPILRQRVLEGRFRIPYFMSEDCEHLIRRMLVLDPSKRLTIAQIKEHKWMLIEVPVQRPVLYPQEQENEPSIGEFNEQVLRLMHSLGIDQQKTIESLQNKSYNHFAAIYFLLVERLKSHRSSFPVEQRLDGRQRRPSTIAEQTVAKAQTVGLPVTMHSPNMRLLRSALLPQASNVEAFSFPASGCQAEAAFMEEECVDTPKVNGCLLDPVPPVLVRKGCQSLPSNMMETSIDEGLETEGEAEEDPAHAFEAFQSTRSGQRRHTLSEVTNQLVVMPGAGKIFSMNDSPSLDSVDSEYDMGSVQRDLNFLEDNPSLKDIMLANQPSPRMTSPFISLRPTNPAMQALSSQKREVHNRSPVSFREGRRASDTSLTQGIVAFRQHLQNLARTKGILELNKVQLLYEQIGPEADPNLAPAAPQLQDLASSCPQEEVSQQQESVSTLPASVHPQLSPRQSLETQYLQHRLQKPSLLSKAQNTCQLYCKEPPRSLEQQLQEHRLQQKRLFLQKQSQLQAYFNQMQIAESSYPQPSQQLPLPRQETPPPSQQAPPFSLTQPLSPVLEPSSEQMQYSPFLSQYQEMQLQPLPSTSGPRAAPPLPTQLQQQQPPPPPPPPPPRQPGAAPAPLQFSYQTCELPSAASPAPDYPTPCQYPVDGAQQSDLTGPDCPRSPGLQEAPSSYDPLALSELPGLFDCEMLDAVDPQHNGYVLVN
Chain of protein kinases (human kinome) (Homo sapiens, UniProt Q00534) (Q00534 whole entry): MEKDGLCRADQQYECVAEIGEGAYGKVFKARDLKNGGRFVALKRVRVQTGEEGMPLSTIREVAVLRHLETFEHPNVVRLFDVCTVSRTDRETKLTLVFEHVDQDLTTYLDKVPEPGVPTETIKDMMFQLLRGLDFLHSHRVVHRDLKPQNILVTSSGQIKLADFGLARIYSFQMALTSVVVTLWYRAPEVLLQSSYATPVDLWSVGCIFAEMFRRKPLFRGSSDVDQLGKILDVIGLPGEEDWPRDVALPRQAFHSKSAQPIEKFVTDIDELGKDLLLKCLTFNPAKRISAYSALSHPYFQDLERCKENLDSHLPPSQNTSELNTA

Cc1ccc(NC(=O)c2cccc(C(F)(F)F)c2)cc1N1Cc2cnc(Nc3ccc(N4CCN(Cc5cn(CCCCCOc6cccc7c6C(=O)N(C6CCC(=O)NC6=O)C7=O)nn5)CC4)nc3)nc2N(C)C1=O (stereo not drawn) [DB0646, N-(3-(7-((6-(4-((1-(5-((2-(2,6-Dioxopiperidin-3-yl)-1,3-dioxoisoindolin-4-yl)oxy)pentyl)-1H-1,2,3-triazol-4-yl)methyl)piperazin-1-v)pyridin-3-yl)amino)-1-methyl-2-oxo-1,4-dihydropyrimido[4,5-d]pyrimidin-3(2H)-yl)-4-methylphenyl)-3-(trifluoromethyl)benzamide]
logFC of GAK (O14976) ([1]; Experiment wp045, down): −0.6424 | logFC of GAK (O14976) ([1]; Experiment wp103, down): −0.4684 | logFC of GAK (O14976) ([1]; Experiment wp105, down): −0.3367 | logFC of GAK (O14976) ([1]; Experiment wp107, down): −0.5564 | logFC of GAK (O14976) ([1]; Experiment wp114, down): −0.3391 | logFC of GAK (O14976) ([1]; Experiment wp117, down): −0.5868 | logFC of GAK (O14976) ([1]; Experiment wp152, down): −0.5117 | logFC of GAK (O14976) ([1]; Experiment wp160, 4 hr, down): −0.4714 | logFC GAK ([1]; GAK (O14976), direction down, experiment wp045): −0.6424 | logFC GAK ([1]; GAK (O14976), direction down, experiment wp103): −0.4684 | logFC GAK ([1]; GAK (O14976), direction down, experiment wp105): −0.3367 | logFC GAK ([1]; GAK (O14976), direction down, experiment wp107): −0.5564 | logFC GAK ([1]; GAK (O14976), direction down, experiment wp114): −0.3391 | logFC GAK ([1]; GAK (O14976), direction down, experiment wp117): −0.5868 | logFC GAK ([1]; GAK (O14976), direction down, experiment wp152): −0.5117 | logFC GAK ([1]; GAK (O14976), direction down, experiment wp160, 4 hr): −0.4714 | logFC GAK ([1]; GAK (O14976), direction down, experiment wp160, 8 hr): −0.8149 | logFC GAK ([1]; GAK (O14976), experiment wp160, 8 hr, degrader vs DMSO, down): −0.8149 | logFC GAK ([1]; GAK (O14976), experiment wp172, down): −0.345 | logFC GAK ([1]; GAK, accession O14976, experiment wp172, direction of change down): −0.345 | logFC BLK ([2]; experiment wp103): −1.19 | logFC BLK ([2]; experiment wp107): −1.259 | logFC BLK ([2]; experiment wp117): −1.275 | logFC BLK ([2]; experiment wp152): −1.511 | logFC BLK ([2]; experiment wp160, 2 hr): −0.5315 | logFC BLK ([2]; experiment wp160, 4 hr): −1.092 | logFC BLK ([2]; experiment wp160, 8 hr): −1.434 | logFC of BLK ([2]; experiment wp045): −1.314 | logFC of BLK (P51451) ([2]; Experiment wp045): −1.314 | logFC of BLK (P51451) ([2]; Experiment wp103): −1.19 | logFC of BLK (P51451) ([2]; Experiment wp107): −1.259 | logFC of BLK (P51451) ([2]; Experiment wp117): −1.275 | logFC of BLK (P51451) ([2]; Experiment wp152): −1.511 | logFC of BLK (P51451) ([2]; Experiment wp160, 2 hr): −0.5315 | logFC of BLK (P51451) ([2]; Experiment wp160, 4 hr): −1.092 | logFC of BLK (P51451) ([2]; Experiment wp160, 8 hr): −1.434 | logFC of SIK2 ([3]; experiment wp045): −0.638 | logFC of SIK2 ([3]; experiment wp107): −0.5933 | logFC of SIK2 ([3]; experiment wp114): −0.4347 | logFC of SIK2 ([3]; experiment wp117): −0.4315 | logFC of SIK2 ([3]; experiment wp160, 4 hr): −0.5421 | logFC of SIK2 ([3]; experiment wp160, 8 hr): −0.5707 | logFC SIK2 (Q9H0K1) ([3]; Experiment wp114): −0.4347 | logFC SIK2 ([3]; SIK2 (Q9H0K1), experiment wp045, down): −0.638 | logFC SIK2 (Q9H0K1) ([3]; experiment wp107): −0.5933 | logFC SIK2 (Q9H0K1) ([3]; experiment wp117): −0.4315 | logFC SIK2 (Q9H0K1) ([3]; experiment wp160, 4 hr): −0.5421 | logFC SIK2 (Q9H0K1) ([3]; experiment wp160, 8 hr): −0.5707

CS(=O)(=O)Nc1cccc(-c2csc3cnc(Nc4ccc(N5CCN(CCOCCOCCOc6cccc7c6C(=O)N(C6CCC(=O)NC6=O)C7=O)CC5)cc4)nc23)c1 (stereo not drawn) [RSS0628]
logFC CDK6 ([4]; experiment wp045): −1.743 | logFC of CDK6 (Q00534) ([4]; Experiment wp045): −1.743

Cc1cnc(Nc2ccc(N3CCN(CCCCCCC(=O)N[C@H](C(=O)N4C[C@H](O)C[C@H]4C(=O)N[C@@H](C)c4ccc(-c5scnc5C)cc4)C(C)(C)C)CC3)cc2)nc1Nc1cccc(S(=O)(=O)NC(C)(C)C)c1 [JWG.123]
logFC GAK [1, 5]: −0.5246 | logFC GAK [1, 6]: −0.5246 | logFC of SIK2 ([3]; experiment wp195): −0.6143 | logFC SIK2 (Q9H0K1) ([3]; experiment wp195): −0.6143

Nc1ncnc2c1c(-c1ccc(Oc3ccccc3)cc1)nn2[C@H]1CC[C@H](N2CCN(CCOCCNC(=O)CNc3cccc4c3C(=O)N(C3CCC(=O)NC3=O)C4=O)CC2)CC1 (stereo partly drawn) [SB1.G.181]
logFC of BLK ([2]; experiment wp071): −2.337 | logFC of BLK (P51451) ([2]; Experiment wp071): −2.337

Cc1ncsc1-c1ccc([C@H](C)NC(=O)[C@@H]2C[C@@H](O)CN2C(=O)[C@@H](NC(=O)CCCCCN2CCc3cc(Nc4ncc(C5CC5)c(NCCCNC(=O)C5CCC5)n4)ccc3C2)C(C)(C)C)cc1 [BSJ.05.026]
logFC GAK [1, 5]: −0.5819 | logFC GAK [1, 6]: −0.6819 | logFC of SIK2 ([3]; experiment wp195): −0.9472 | logFC SIK2 (Q9H0K1) ([3]; experiment wp195): −0.9472

O=C(COc1cccc2c1C(=O)N(C1CCC(=O)NC1=O)C2=O)NCCCCCCCN1CCc2cc(Nc3ncc(C4CC4)c(NCCCNC(=O)C4CCC4)n3)ccc2C1 (stereo not drawn) [BSJ.04.178]
logFC of GAK (O14976) ([1]; Experiment wp134, down): −2.402 | logFC GAK ([1]; GAK (O14976), direction down, experiment wp134): −2.402 | logFC of SIK2 ([3]; experiment wp134): −1.351 | logFC SIK2 (Q9H0K1) ([3]; experiment wp134): −1.351

CC(C)S(=O)(=O)c1ccccc1Nc1nc(Nc2ccc(N3CCN(CCOCCNC(=O)CNc4ccc5c(c4)C(=O)N(C4CCC(=O)NC4=O)C5=O)CC3)cc2)ncc1Cl (stereo not drawn) [SK.3.93]
logFC of GAK (O14976) ([1]; Experiment wp016, down): −0.4334 | logFC GAK ([1]; GAK (O14976), direction down, experiment wp016): −0.4334 | logFC of BLK ([2]; experiment wp016): −1.502 | logFC of BLK (P51451) ([2]; Experiment wp016): −1.502 | logFC CDK6 ([4]; experiment wp016): −0.8585 | logFC of CDK6 (Q00534) ([4]; Experiment wp016): −0.8585

CC(C)S(=O)(=O)c1ccccc1Nc1nc(Nc2ccc(N3CCN(CCOCCOCCC(=O)NCCNc4cccc5c4CN(C4CCC(=O)NC4=O)C5=O)CC3)cc2)ncc1Cl (stereo not drawn) [TL13.97]
logFC BLK ([2]; experiment wp137): −2.219 | logFC of BLK (P51451) ([2]; Experiment wp137): −2.219 | logFC CDK6 ([4]; experiment wp137): −0.5967 | logFC of CDK6 (Q00534) ([4]; Experiment wp137): −0.5967

Cc1ccc(C(=O)Nc2ccc(CN3CCN(CCOCCOCCNC(=O)CNc4cccc5c4C(=O)N(C4CCC(=O)NC4=O)C5=O)CC3)c(C(F)(F)F)c2)cc1C#Cc1cnc2cccnn12 (stereo not drawn) [TL13.150]
logFC of GAK (O14976) ([1]; Experiment wp081, down): −1.014 | logFC GAK ([1]; GAK (O14976), direction down, experiment wp081): −1.014 | logFC BLK ([2]; experiment wp081): −1.435 | logFC of BLK (P51451) ([2]; Experiment wp081): −1.435
